The nature of series [1]: Plasma protein binding in vitro by ultrafiltration, human plasma. The format is in vitro ADME, humans. As to the method:
The ability of verticinone to bind to plasma protein was determined by the ultrafiltration method. A Centrifree Micropartition device (Millipore, Beverly, MA, USA) was used to separate unbound and bound verticinone. Verticinone of different concentrations were added into blank rat and human plasma to give final concentrations at 5, 30 and 100 ng/mL. The spiked plasma was incubated for 30 min at 37 °C and an aliquot (100 μL) was analyzed by previously described methods to determine the total concentration of verticinone. The ultrafiltrate was obtained by centrifuging at 14,000 rpm for 10 min. The concentration of unbound verticinone in filtrate was similarly determined by the previously described methods. The percentage of free fraction (p) of verticinone was calculated as follow: p = (concentration of verticinone in ultrafiltrate/concentration of verticinone in original spiked plasma sample) × 100%.

Series [2] is described as follows: Tissue distribution study after oral administration. It counts as in vivo, rats. To be noted: for rank order of AUC values for individual tissues: i.g. 2 mg/kg. The method, then:
A single 2 mg/kg oral dose of verticinone was administrated to thirty rats (15 male and 15 female). Rats were sacrificed and tissues (heart, liver, spleen, lung, kidney, brain, stomach, intestine, skin, muscle, fat and gonads) were promptly removed at 0.25, 0.58 and 6 h (n = 10, with 5 male and 5 female) after dosing and washed with saline. Each tissue sample (0.2 g) was homogenized in 5 volumes (v/w) of distilled water. Tissue homogenates were stored at −20 °C until analysis. Verticinone was extracted from tissue homogenate based on the method described for plasma with slight modifications. The evaporated residue was reconstituted in 200 μL methanol, vortexed, followed by centrifugation at 15,000 rpm twice. An aliquot of 10 μL was injected into the LC-MS system for analysis.
(§1) The quantification of verticinone was performed by a LC-MS method based on the previously reported method with slight modifications. The liquid chromatography system consisted of a model 2010 chromatograph (Shimadzu, Kyoto, Japan) equipped with a Shim-Pack VP-ODS C18 column (150 mm × 2.0 mm, 5 μm). A Shimadzu 2010 mass spectrometer (Q-array-Octapole-Quadrupole mass analyzer) equipped with an electrospray ionization interface was used for MS detection. The mobile phase consisted of (A) distilled water and (B) methanol, and the flow rate was 0.2 mL/min. Chromatography separation was achieved using a gradient elution program, as follows: 0.03→6.0 min, B% 15→85; 6.0→7.0 min, B% 85→85; 7.0→8.0 min, B% 85→15; 8.0–12.0 min, B% 15→15. The column and autosampler tray temperature were kept constant at 35 °C and 20 °C, respectively. For the determination of verticinone, the positive mode was selected, along with the conditions as follows.
CDL voltage […], probe voltage 4.5 kV, CDL temperature 250 °C, block temperature 200 °C, gas flow 1.5 L/min. Hupehenine was used as the internal standard (IS). Both verticinone and IS were detected using selected ion monitoring (SIM) at m/z 430.25 for verticinone and m/z 416.30 for hupehenine (IS), with a dwell time of 200 ms. […]

The nature of series [3]: Excretion study (urine, bile, feces) after oral dose. It counts as in vivo, SD rats. To be noted: for dose excreted: SD, rat, faeces, oral, read-out: recovery from feces; for dose excreted / cumulative excreted fraction in bile (% of administered dose) / cumulative excreted fraction in feces (% of administered dose) / unchanged verticinone excreted from urine and feces / cumulative excreted fraction in urine (% of administered dose): i.g. 2 mg/kg; for dose excreted as unchanged parent compound: 2 mg/kg oral dose; for cumulative excreted fraction in bile (% of administered dose): bile 24 h; for cumulative excreted fraction in feces (% of administered dose): feces 36 h; for cumulative excreted fraction in urine (% of administered dose): unchanged verticinone. As to the method: Ten rats were housed separately in metabolic cages and received a single oral dose of 2 mg/kg verticinone. Urine was collected at 0, 4, 8, 12, and 24 h for female rats and at 0, 4, 8, 12, 24, 36 h for male rats. Feces were collected at 0, 12, 24, and 36 h for female rats and at 0, 8, 12, 24, 36 h for male rats. The volume of urine samples was measured before storage at −20 °C. Feces were weighted and homogenized in 5 volumes (v/w) of 50% methanol/50% water and stored at −20 °C until analysis. In addition, ten rats were anesthetized with ether and then the bile ducts were cannulated with polyethylene tube. The rats also received a single oral dose of 2 mg/kg verticinone. Bile was collected at 0, 2, 4, 6, 8, 12, and 24 h after dosing and stored at −20 °C until analysis. Verticinone was extracted from urine, feces and bile samples based on the method described for tissue samples.
as §1
CDL voltage […], probe voltage 4.5 kV, CDL temperature 250 °C, block temperature 200 °C, gas flow 1.5 L/min. Hupehenine was used as the internal standard (IS). Both verticinone and IS were detected using selected ion monitoring (SIM) at m/z 430.25 for verticinone and m/z 416.30 for hupehenine (IS), with a dwell time of 200 ms. Blank plasma, tissue homogenate, urine, feces homogenate and bile were used to prepare the corresponding calibration curves to avoid different matrix effects.

Series [4] is described as follows: Metabolic rate in rat liver microsomes. It counts as in vitro ADME.
On the set-up of series [5]: method as in PMID 19417735. To be noted: mice; cited from earlier work.

Read-outs that look alike come from different tables or passages of the source.

Consider `C[C@H]1CC[C@@H]2N(C1)C[C@H]1[C@@H]3C[C@H]4[C@@H](CC(=O)[C@H]5C[C@@H](O)CC[C@@]54C)[C@@H]3CC[C@@H]1[C@]2(C)O` [verticinone, Verticinone], for which, in series [1] (human plasma, 5 ng/mL, ultrafiltration, n = 4, read-out: Protein binding rates (%) (converted)), the fraction unbound at 30 min, 5 ng/mL was 0.074. Also, in series [1] (human plasma, 30 ng/mL, ultrafiltration, n = 4, read-out: Protein binding rates (%) (converted)), the fraction unbound at 30 min, 30 ng/mL is 0.105. Moreover, the fraction unbound at 30 min, 100 ng/mL in series [1] (human plasma, 100 ng/mL, ultrafiltration, n = 4, read-out: Protein binding rates (%) (converted)) was 0.054. The compound also came in with a fraction unbound at 30 min in series [1] (human, plasma, humans, concentration range 5~100 ng/mL) of 0.054 to 0.105. Besides, the “rank order of AUC values for individual tissues” value in series [2] (female rats) is “intestine > stomach > liver > kidney > spleen > lung > gonad > heart > muscle > skin > fat > brain”. Also, the “rank order of AUC values for individual tissues” value in series [2] (male rats) is given as “intestine > stomach > liver > kidney > spleen > lung > heart > gonad > muscle > skin > fat > brain”. Further, in series [2] (oral 2 mg/kg, rats, 15 min, 35 min and 6 h), the “concentration found in the brain” value is given as “very little was found in the brain”. Also, in series [3] (female rats), the dose excreted was < 1%, the “dose excreted as unchanged parent compound” value is listed as “less than 1%”, the “cumulative excreted fraction in bile (% of administered dose)” value is recorded as 0.02% ± 0.01 and the “cumulative excreted fraction in feces (% of administered dose)” value is 0.42% ± 0.29. Also, in series [3] (female rats), the “unchanged verticinone excreted from urine and feces” value amounted to 0.6%. In series [3] (male rats), the dose excreted was < 1%, the “dose excreted as unchanged parent compound” value is reported as “less than 4%”, the “cumulative excreted fraction in bile (% of administered dose)” value is reported as 0.31% ± 0.21 and the “cumulative excreted fraction in feces (% of administered dose)” value was 0.92% ± 0.53. For the same compound, the “unchanged verticinone excreted from urine and feces” value in series [3] (male rats) was “about 3.4%”. For the same compound, in series [3] (female rats, urine 24 h), the “cumulative excreted fraction in urine (% of administered dose)” value is listed as 0.23% ± 0.05. Moreover, the “cumulative excreted fraction in urine (% of administered dose)” value in series [3] (male rats, urine 36 h) was 2.50% ± 0.98. Further, the “metabolic rate in rat liver microsomes” value in series [4] (female rats) is given as 3.76 × 10^−3 nmol/min/mg protein. Also, the “metabolic rate in rat liver microsomes, females faster than males” value in series [4] (females vs males) was “about 1.7 times”. For the same compound, the “metabolic rate in rat liver microsomes” value in series [4] (male rats) is on record as 2.18 × 10^−3 nmol/min/mg protein. Also, the addictive effect entry in series [5] is recorded as “no addictive effect”.

Source of the values: paper PMC6271218, “Pharmacokinetics, Tissue Distribution and Excretion of Verticinone from F. hupehensis in Rats” (Molecules, 2014).
